Like-named read-outs stand apart in the source and are kept apart here.
Tests used:
Assay type in all cases: biochemical
PI3K-alpha = PI3K-alpha (Homo sapiens, UniProt P42336); assay: PI3K-alpha fluorescence polarization assay
PI3K-gamma = PI3K-gamma (Homo sapiens, UniProt P48736); assay: PI3K-gamma fluorescence polarization assay; conditions: PI3Kγ Avg. IC50
In short: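 Enzyme 5 ng; substrate diC8-PI(4,5)P2 2.5 μM; ATP 25 μM; 5 mM HEPES pH 7, 2.5 mM MgCl2; DMSO ≤2%; 1 h, 25° C. Quench 10 mM EDTA. Detect with GRP1 PH domain 100 nM + TMR-IP4 probe 5 nM by polarization.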

human TOR = target: T1, human TOR (Homo sapiens, UniProt P42345); assay: mTOR enzyme assay (DELFIA, His6-S6K substrate)
T1 construct: FLAG

[1] = read-out: mTOR Kinase Avg. IC50

Chain of PI3K-alpha (P42336 whole entry, species assumed): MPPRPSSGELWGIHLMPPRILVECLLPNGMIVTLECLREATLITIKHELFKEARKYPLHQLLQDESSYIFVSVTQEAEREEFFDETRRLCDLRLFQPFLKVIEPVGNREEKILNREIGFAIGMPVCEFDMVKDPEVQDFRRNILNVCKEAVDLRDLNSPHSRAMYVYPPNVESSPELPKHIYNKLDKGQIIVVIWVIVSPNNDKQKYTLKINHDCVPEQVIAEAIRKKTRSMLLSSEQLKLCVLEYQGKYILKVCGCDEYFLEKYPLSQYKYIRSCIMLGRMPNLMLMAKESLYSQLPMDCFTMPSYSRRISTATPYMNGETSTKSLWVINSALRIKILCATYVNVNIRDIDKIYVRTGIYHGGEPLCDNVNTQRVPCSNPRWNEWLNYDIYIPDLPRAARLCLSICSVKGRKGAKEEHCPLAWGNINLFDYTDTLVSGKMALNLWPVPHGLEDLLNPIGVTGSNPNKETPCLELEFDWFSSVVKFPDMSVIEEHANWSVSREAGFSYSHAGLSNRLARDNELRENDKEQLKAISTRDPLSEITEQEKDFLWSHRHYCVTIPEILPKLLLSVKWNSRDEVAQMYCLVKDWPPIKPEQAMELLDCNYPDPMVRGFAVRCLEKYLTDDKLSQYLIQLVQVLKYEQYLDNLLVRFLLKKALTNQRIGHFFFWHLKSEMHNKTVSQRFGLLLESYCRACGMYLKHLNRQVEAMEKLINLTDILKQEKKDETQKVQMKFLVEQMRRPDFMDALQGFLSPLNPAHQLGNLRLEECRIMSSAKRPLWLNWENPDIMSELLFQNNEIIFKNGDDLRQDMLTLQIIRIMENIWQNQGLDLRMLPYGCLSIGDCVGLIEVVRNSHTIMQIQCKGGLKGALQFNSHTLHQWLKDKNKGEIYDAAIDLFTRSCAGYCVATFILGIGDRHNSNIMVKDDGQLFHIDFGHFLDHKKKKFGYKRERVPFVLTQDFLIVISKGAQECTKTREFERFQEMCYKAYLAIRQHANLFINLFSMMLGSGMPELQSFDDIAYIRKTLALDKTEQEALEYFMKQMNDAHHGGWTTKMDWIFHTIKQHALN
Chain of PI3K-alpha (P27986 whole entry partner, species assumed): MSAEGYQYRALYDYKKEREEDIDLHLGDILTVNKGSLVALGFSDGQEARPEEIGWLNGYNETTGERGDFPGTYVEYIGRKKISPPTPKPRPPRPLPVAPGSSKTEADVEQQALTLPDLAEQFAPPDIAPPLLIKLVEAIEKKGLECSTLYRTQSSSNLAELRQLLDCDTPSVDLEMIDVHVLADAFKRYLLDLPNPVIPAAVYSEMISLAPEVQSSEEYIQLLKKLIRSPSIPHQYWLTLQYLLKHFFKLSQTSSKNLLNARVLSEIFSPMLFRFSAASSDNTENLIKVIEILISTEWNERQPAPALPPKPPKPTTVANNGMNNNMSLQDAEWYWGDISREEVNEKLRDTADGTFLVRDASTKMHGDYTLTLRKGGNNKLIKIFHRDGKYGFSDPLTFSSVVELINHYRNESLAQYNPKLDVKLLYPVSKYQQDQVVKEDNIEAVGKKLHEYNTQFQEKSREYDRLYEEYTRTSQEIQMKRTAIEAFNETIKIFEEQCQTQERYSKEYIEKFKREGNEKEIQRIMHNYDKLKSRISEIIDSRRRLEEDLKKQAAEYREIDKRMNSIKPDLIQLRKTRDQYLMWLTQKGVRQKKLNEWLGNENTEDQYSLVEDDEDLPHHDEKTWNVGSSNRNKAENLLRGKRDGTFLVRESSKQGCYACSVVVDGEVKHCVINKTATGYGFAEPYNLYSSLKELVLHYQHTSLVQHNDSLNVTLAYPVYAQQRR
Chain of PI3K-gamma (P48736 whole entry, species assumed, the tested form may be a part): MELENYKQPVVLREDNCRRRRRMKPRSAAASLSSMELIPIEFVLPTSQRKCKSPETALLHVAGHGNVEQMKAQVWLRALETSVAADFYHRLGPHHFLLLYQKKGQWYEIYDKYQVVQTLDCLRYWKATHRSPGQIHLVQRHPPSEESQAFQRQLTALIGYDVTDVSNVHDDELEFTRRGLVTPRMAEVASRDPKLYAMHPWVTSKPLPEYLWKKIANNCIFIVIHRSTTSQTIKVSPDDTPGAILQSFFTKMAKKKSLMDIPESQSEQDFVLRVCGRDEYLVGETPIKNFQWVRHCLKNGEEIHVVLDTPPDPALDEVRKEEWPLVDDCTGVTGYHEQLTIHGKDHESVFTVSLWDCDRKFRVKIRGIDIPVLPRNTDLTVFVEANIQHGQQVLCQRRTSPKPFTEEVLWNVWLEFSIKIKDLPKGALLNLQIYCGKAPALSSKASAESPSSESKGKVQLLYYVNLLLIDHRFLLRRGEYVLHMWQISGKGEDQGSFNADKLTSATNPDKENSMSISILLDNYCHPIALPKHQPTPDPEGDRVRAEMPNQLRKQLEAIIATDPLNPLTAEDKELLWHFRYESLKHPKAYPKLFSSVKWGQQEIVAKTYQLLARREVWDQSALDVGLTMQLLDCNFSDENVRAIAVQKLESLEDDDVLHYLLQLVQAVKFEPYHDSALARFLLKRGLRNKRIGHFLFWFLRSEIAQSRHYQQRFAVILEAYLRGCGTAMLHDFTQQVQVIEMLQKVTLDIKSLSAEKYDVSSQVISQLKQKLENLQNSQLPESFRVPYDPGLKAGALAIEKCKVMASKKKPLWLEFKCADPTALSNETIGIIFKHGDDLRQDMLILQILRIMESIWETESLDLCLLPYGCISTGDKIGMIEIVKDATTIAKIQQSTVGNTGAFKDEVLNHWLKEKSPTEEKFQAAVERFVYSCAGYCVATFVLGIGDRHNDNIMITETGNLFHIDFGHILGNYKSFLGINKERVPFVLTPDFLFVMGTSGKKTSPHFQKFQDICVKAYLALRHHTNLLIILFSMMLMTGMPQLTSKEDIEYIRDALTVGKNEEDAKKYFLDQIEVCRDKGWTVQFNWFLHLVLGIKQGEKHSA

Compound	IC50 (PI3K-alpha; read-out: PI3Kα Avg. IC50)	IC50 (PI3K-gamma)	IC50 (human TOR; [1])	IC50 (PI3K-alpha; PI3Kα Avg. IC50)	IC50 (human TOR; mTOR Kinase Avg. IC50)
COc1ccc2c(c1)c(/C=C1\Oc3cc(Br)ccc3C1=O)cn2CCCN(C)C [Example 413, (2Z)-6-bromo-2-({1-[3-(dimethylamino)propyl]-5-methoxy-1H-indol-3-yl}methylene)-1-benzofuran-3(2H)-one]	7820 nM	5610 nM	> 20000 nM	–	–
COc1ccc2c(c1)c(/C=C1\Oc3cc(N)ccc3C1=O)cn2CCCN(C)C [Example 418, (2Z)-6-amino-2-({1-[3-(dimethylamino)propyl]-5-methoxy-1H-indol-3-yl}methylene)-1-benzofuran-3(2H)-one]	1380 nM	9500 nM	10300 nM	–	–
Cc1c(C=C2Oc3cc(O)cc(O)c3C2=O)c2cc(Cl)ccc2n1CCCC#N [Example 238, 4-{5-chloro-3-[(4,6-dihydroxy-3-oxo-1-benzofuran-2(3H)-ylidene)methyl]-2-methyl-1H-indol-1-yl}butanenitrile]	288 nM	2820 nM	360 nM	–	–
COc1ccc2c(c1)c(/C=C1\Oc3cc(O)ccc3C1=O)c(C)n2CCN1CCCC1C (stereo not drawn) [Example 453, (2Z)-6-Hydroxy-2-({5-methoxy-2-methyl-1-[2-(2-methylpyrrolidin-1-yl)ethyl]-1H-indol-3-yl}methylene)-1-benzofuran-3(2H)-one]	49.5 nM	550 nM	2200 nM	–	–
Cn1cc(/C=C2\Oc3cc(O)cc(O)c3C2=O)c2c(-c3cccc(C#N)c3)cccc21 [Example 367, 3-{3-[(Z)-(4,6-Dihydroxy-3-oxo-1-benzofuran-2(3H)-ylidene)methyl]-1-methyl-1H-indol-4-yl}benzonitrile]	1440 nM	5420 nM	500 nM	–	–
COc1ccc2c(c1)c(C=C1Oc3c(ccc(O)c3O)C1=O)c(C)n2C [Example 90, 6,7-dihydroxy-2-[(5-methoxy-1,2-dimethyl-1H-indol-3-yl)methylene]-1-benzofuran-3(2H)-one]	202 nM	1220 nM	1590 nM	–	–
CNC(=O)Nc1cc(C)c2c(c1)C(=O)/C(=C/c1c(C)n(CCN3CCN(C)CC3)c3ccc(OC)cc13)O2 [Compound 662, 1-[(2Z)-2-({5-methoxy-2-methyl-1-[2-(4-methylpiperazin-1-yl)ethyl]-1H-indol-3-yl}methylidene)-7-methyl-3-oxo-2,3-dihydro-1-benzofuran-5-yl]-3-methylurea]	81.5 nM	3070 nM	1480 nM	–	–
N#CCCCn1cc(C=C2Oc3cc(O)cc(O)c3C2=O)c2c(Br)cccc21 [Example 230, 4-{4-bromo-3-[(4,6-dihydroxy-3-oxo-1-benzofuran-2(3H)-ylidene)methyl]-1H-indol-1-yl}butanenitrile]	2020 nM	> 10000 nM	3400 nM	–	–
COc1ccc(Br)c2c1C(=O)/C(=C/c1cn(C)c3cccc(-c4ccccc4)c13)O2 [Example 423, (2Z)-7-Bromo-4-methoxy-2-[(1-methyl-4-phenyl-1H-indol-3-yl)methylene]benzofuran-3(2H)-one]	> 10000 nM	> 10000 nM	> 20000 nM	–	–
O=C1/C(=C/c2c(-c3ccccc3)[nH]c3ccccc23)Oc2c(O)cccc21 [Example 67, (2Z)-7-hydroxy-2-[(2-phenyl-1H-indol-3-yl)methylene]-1-benzofuran-3(2H)-one]	328 nM	302 nM	8400 nM	–	–
COc1ccc2c(c1)c(/C=C1\Oc3cc(O)c(F)cc3C1=O)c(C)n2CCCN(C)C [Example 352, (2Z)-2-({1-[3-(Dimethylamino)propyl]-5-methoxy-2-methyl-1H-indol-3-yl}methylene)-5-fluoro-6-hydroxy-1-benzofuran-3(2H)-one]	116 nM	3930 nM	> 800 nM	–	–
CN1CCN(CCn2c(-c3ccccc3)c(C=C3Oc4cc(O)cc(O)c4C3=O)c3ccccc32)CC1 [Example 159, 4,6-dihydroxy-2-({1-[2-(4-methylpiperazin-1-yl)ethyl]-2-phenyl-1H-indol-3-yl}methylene)-1-benzofuran-3(2H)-one]	2860 nM	5120 nM	1800 nM	–	–
O=C1C(=Cc2c[nH]c3cccc(-c4ccccc4)c23)Oc2cc(O)cc(O)c21 [Example 269, 4,6-dihydroxy-2-[(4-phenyl-1H-indol-3-yl)methylene]-1-benzofuran-3(2H)-one]	1640 nM	2210 nM	1060 nM	–	–
CNC(=O)Nc1ccc2c(c1)O/C(=C\c1cn(CCCN(C)C)c3ccc(OC)cc13)C2=O [Example 406, 1-(2Z)-[2-({1-[3-(Dimethylamino)propyl]-5-methoxy-1H-indol-3-yl}methylene)-3-oxo-2,3-dihydro-1-benzofuran-6-yl]-3-methyl urea]	–	> 10000 nM	> 20000 nM	–	–
Cn1c(-c2ccccc2)c(C=C2Oc3ccccc3C2=O)c2ccccc21 [Example 3, 2-[(1-methyl-2-phenyl-1H-indol-3-yl)methylene]-1-benzofuran-3(2H)-one]	> 10000 nM	–	> 20000 nM	–	–
O=C1C(=Cc2c[nH]c3ccccc23)Oc2cc(O)cc(O)c21 [Example 13, 4,6-dihydroxy-2-(1H-indol-3-ylmethylene)-1-benzofuran-3(2H)-one]	–	–	–	6750 nM	9200 nM

Now from value to compound, other results behind:

IC50 (PI3K-alpha; read-out: PI3Kα Avg. IC50)	IC50 (PI3K-gamma)	IC50 (human TOR; [1])	Compound	IC50 (PI3K-alpha; PI3Kα Avg. IC50)	IC50 (human TOR; mTOR Kinase Avg. IC50)
0.75 nM	5.07 nM	< 1 nM	CNC(=O)Nc1ccc2c(c1)C(=O)/C(=C/c1c(-c3c(C)nn(C)c3C)[nH]c3c(F)cc(OC)cc13)O2 [Compound 693, 1-[(2Z)-2-{[7-fluoro-5-methoxy-2-(1,3,5-trimethyl-1H-pyrazol-4-yl)-1H-indol-3-yl]methylidene}-3-oxo-2,3-dihydro-1-benzofuran-5-yl]-3-methylurea]	–	–
11.5 nM	984 nM	47 nM	COc1ccc2c(c1)c(/C=C1\Oc3cc(O)ccc3C1=O)c(C1CCCC1)n2CCN1CCN(C)CC1 [Example 411, (2Z)-2-({2-Cyclopentyl-5-methoxy-1-[2-(4-methylpiperazin-1-yl)ethyl]-1H-indol-3-yl}methylene)-6-hydroxy-1-benzofuran-3(2H)-one]	–	–
547 nM	448 nM	30 nM	Cn1cc(/C=C2\Oc3cc(O)cc(O)c3C2=O)c2c(-c3ccc(C(=O)N4CCCC4)cc3)cccc21 [Example 396, (2Z)-4,6-Dihydroxy-2-({1-methyl-4-[4-(pyrrolidin-1-ylcarbonyl)phenyl]-1H-indol-3-yl}methylene)-1-benzofuran-3(2H)-one]	–	–
3.1 nM	41.5 nM	275 nM	CCn1c(C)c(/C=C2\Oc3ccc(NC(=O)Nc4ccc(CN(C)C)cc4)cc3C2=O)c2cc(OC)ccc21 [Compound 719, 1-{4-[(dimethylamino)methyl]phenyl}-3-{(2Z)-2-[(1-ethyl-5-methoxy-2-methyl-1H-indol-3-yl)methylidene]-3-oxo-2,3-dihydro-1-benzofuran-5-yl}urea]	–	–
1840 nM	8530 nM	20 nM	Cn1cc(/C=C2\Oc3cc(O)cc(O)c3C2=O)c2c(-c3ccc(C#N)nc3)cccc21 [Example 397, 5-{3-[(Z)-(4,6-Dihydroxy-3-oxo-1-benzofuran-2(3H)-ylidene)methyl]-1-methyl-1H-indol-4-yl}pyridine-2-carbonitrile]	–	–
3.5 nM	20.3 nM	133 nM	CCn1c(C)c(/C=C2\Oc3ccc(NC(=O)Nc4ccc(CCN(C)C)cc4)cc3C2=O)c2cc(OC)ccc21 [Compound 670, 1-{4-[2-(dimethylamino)ethyl]phenyl}-3-{(2Z)-2-[(1-ethyl-5-methoxy-2-methyl-1H-indol-3-yl)methylidene]-3-oxo-2,3-dihydro-1-benzofuran-5-yl}urea]	–	–
573 nM	1050 nM	65 nM	O=C1C(=Cc2c(-c3ccc(O)cc3)[nH]c3ccccc23)Oc2cc(O)cc(O)c21 [Example 206, 4,6-dihydroxy-2-{[2-(4-hydroxyphenyl)-1H-indol-3-yl]methylene}-1-benzofuran-3(2H)-one]	–	–
0.55 nM	1.5 nM	3 nM	COc1cc(F)c2[nH]c(-c3c(C)nn(C)c3C)c(/C=C3\Oc4ccc(NC(=O)Nc5ccc(C(=O)N6CCOCC6)cc5)cc4C3=O)c2c1 [Compound 731, 1-[(2Z)-2-{[7-fluoro-5-methoxy-2-(1,3,5-trimethyl-1H-pyrazol-4-yl)-1H-indol-3-yl]methylidene}-3-oxo-2,3-dihydro-1-benzofuran-5-yl]-3-[4-(morpholin-4-ylcarbonyl)phenyl]urea]	–	–
264 nM	2610 nM	290 nM	Cc1[nH]c2ccc(Cl)cc2c1C=C1Oc2cc(O)cc(O)c2C1=O [Example 215, 2-[(5-chloro-2-methyl-1H-indol-3-yl)methylene]-4,6-dihydroxy-1-benzofuran-3(2H)-one]	–	–
1160 nM	6430 nM	190 nM	Cc1noc(C)c1-c1[nH]c2ccccc2c1C=C1Oc2cc(O)cc(O)c2C1=O [Example 204, 2-{[2-(3,5-dimethylisoxazol-4-yl)-1H-indol-3-yl]methylene}-4,6-dihydroxy-1-benzofuran-3(2H)-one]	–	–
0.8 nM	3.65 nM	23 nM	COc1cc(F)c2[nH]c(-c3c(C)nn(C)c3C)c(/C=C3\Oc4ccc(NC(=O)NCCN(C)C)cc4C3=O)c2c1 [Compound 716, 1-[2-(dimethylamino)ethyl]-3-[(2Z)-2-{[7-fluoro-5-methoxy-2-(1,3,5-trimethyl-1H-pyrazol-4-yl)-1H-indol-3-yl]methylidene}-3-oxo-2,3-dihydro-1-benzofuran-5-yl]urea]	–	–

Reference: US20090311217A1, “3-SUBSTITUTED-1H-INDOLE COMPOUNDS, THEIR USE AS MTOR KINASE AND PI3 KINASE INHIBITORS, AND THEIR SYNTHESES” (priority 2008, published 2009)
